From ChEMBL document CHEMBL5131396, “Structure-activity relationship for the folding intermediate-selective inhibition of DYRK1A” (Eur J Med Chem, 2022)
Calls of active or inactive are those of the source. The calls are words filed in the database; no cut-off is given here.

Tests used:
[1] = system: HEK293; test: Cytotoxicity against HEK293 cells up to 8 uM; assay type: toxicity, cell-based; conditions: human, hek293, 8 µM
[2] = biological target: T1, Dual specificity tyrosine-phosphorylation-regulated kinase 1A (Homo sapiens, UniProt Q13627); test: Inhibition of FLAG-tagged full-length human recombinant DYRK1A (127 to 485 residues) expressed in Escherichia coli assessed as reduction in phosphorylated tyrosine level by Western blot analysis; conditions: dose <= 32.0 µM, DDE = dose-dependent effect
[3] = biological target: Serine/threonine-protein kinase D1 (Homo sapiens) (UniProt Q15139); test: Inhibition of recombinant PKD1 in HEK293 cells at 32 uM using DYRKtide peptide as substrate incubated for 45 mins in presence of ATP by Kinase-Glo Luminescent kinase assay
Serine/threonine-protein kinase D1 (Homo sapiens), sequence (Q15139 whole entry, looked up, the tested form may be a part): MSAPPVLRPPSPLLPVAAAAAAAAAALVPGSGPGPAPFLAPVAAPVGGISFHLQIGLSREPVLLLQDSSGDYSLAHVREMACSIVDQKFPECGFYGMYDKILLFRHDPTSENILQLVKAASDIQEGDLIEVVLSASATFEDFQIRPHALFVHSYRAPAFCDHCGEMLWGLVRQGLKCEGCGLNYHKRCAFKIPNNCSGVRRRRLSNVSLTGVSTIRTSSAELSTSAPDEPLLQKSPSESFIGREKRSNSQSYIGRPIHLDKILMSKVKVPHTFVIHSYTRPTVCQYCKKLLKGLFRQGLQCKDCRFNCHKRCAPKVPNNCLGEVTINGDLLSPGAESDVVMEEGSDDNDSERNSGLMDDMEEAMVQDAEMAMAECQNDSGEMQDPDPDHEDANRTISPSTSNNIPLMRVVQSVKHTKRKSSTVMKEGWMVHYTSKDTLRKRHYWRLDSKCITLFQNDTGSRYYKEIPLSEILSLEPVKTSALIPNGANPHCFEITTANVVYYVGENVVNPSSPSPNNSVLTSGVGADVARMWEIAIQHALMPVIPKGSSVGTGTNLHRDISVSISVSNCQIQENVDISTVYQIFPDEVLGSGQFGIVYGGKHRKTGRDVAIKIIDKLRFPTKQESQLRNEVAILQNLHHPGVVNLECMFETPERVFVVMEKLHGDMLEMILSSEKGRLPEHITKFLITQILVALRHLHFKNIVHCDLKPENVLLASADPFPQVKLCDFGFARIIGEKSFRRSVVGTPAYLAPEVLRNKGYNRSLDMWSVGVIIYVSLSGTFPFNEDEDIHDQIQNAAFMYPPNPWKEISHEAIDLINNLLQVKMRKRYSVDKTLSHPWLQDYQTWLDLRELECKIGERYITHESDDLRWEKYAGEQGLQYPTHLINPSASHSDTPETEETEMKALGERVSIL

[4] = biological target: T1, Dual specificity tyrosine-phosphorylation-regulated kinase 1A; test: Inhibition of FLAG-tagged full-length human recombinant DYRK1A (127 to 485 residues) expressed in Escherichia coli assessed as reduction in TAU intermolecular phosphorylation incubated for 30 mins by Western blot analysis
[5] = biological target: T1, Dual specificity tyrosine-phosphorylation-regulated kinase 1A; test: Inhibition of FLAG-tagged full-length human recombinant DYRK1A (127 to 485 residues) expressed in Escherichia coli assessed as reduction in autophosphorylation at Ser97 residue by Western blot analysis
[6] = biological target: Serine/threonine-protein kinase D1 (Homo sapiens) (UniProt Q15139); test: Inhibition of PKD1 in HEK293 cells at 1 to 2 uM measured after 4 days by Western blot analysis; conditions: dose 1-2 µM, time 4.0 day
[7] = biological target: Rho-associated protein kinase 1 (Homo sapiens) (UniProt Q13464); test: Inhibition of ROCK1 in HEK293 cells at 1 to 2 uM measured after 4 days by Western blot analysis; assay type: cell-based; conditions: dose 1-2 µM, time 4.0 day
Rho-associated protein kinase 1 (Homo sapiens), sequence (Q13464 2-1354 limits assumed): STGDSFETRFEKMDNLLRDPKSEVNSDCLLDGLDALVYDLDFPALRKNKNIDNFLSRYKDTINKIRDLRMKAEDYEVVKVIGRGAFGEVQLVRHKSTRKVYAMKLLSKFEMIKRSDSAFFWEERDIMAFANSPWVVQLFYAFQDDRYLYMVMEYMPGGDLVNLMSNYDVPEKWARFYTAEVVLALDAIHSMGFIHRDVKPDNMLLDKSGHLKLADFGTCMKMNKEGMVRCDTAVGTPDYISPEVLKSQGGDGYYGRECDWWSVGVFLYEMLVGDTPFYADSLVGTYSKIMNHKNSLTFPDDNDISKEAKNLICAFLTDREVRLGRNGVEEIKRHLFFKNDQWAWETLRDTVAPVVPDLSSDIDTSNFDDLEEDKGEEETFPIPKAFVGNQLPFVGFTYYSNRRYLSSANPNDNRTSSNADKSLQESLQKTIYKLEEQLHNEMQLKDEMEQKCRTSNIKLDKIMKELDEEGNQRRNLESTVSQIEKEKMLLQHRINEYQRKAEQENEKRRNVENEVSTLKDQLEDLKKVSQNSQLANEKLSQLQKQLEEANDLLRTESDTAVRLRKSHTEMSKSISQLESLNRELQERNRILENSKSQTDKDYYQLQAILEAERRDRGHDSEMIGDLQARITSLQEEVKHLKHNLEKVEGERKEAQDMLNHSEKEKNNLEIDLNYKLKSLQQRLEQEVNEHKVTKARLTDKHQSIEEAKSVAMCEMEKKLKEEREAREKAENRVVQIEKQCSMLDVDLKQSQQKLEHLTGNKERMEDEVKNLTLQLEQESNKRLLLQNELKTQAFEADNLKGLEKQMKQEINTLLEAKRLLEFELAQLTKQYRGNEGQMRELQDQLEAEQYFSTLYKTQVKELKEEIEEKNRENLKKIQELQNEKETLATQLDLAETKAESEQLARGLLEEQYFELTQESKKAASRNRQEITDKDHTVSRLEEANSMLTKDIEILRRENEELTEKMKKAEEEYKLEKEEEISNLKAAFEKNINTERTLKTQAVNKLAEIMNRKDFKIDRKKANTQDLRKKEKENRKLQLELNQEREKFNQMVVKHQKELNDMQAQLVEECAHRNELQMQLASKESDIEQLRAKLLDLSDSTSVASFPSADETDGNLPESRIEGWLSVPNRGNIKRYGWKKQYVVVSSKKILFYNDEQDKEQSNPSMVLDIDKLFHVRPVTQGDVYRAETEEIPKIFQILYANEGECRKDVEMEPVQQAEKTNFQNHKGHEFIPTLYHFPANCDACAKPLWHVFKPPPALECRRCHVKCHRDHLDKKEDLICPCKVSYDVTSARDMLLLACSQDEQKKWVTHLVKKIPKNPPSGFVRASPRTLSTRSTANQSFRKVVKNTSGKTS

[8] = biological target: T1, Dual specificity tyrosine-phosphorylation-regulated kinase 1A; test: Induction of degradation of endogenous FLAG-tagged full-length human recombinant DYRK1A (127 to 485 residues) expressed in Escherichia coli in HEK293 cells assessed as decrease in protein level measured after 4 days by Western blot analysis; conditions: dose <= 8.0 µM, time 4.0 day, DDE = dose-dependent effect

IC50 [5] | Compound | Activity [1] | inhibition [2] | inhibition [3] | also measured
– | COc1ccc(/C=C2\SC(=S)NC2=O)cc1C#C[Si](C)(C)C | Non-Toxic | Dde | Active | –
– | CCOc1cc(/C=C2\SC(=S)NC2=O)ccc1O | – | – | – | inhibition [4]: Active
> 32 µM | COc1ccc(/C=C2\SC(=S)NC2=O)cc1/C=C/[Si](C)(C)C | – | – | – | –
> 32 µM | COc1ccc(/C=C2\SC(=S)NC2=O)cc1/C=C/C1CCCCC1 | – | – | – | –
0.53 µM | COc1ccc(/C=C2\SC(=S)NC2=O)cc1C#C[Si](C)(c1ccccc1)c1ccccc1 | Non-Toxic | Dde | Active | inhibition [6]: Active; inhibition [7]: Active; Activity [8]: Dde
> 32 µM | COc1ccc(/C=C2\SC(=S)NC2=O)cc1/C=C/C(C)(C)C | – | – | – | –
